We go through ten compounds from ChEMBL document CHEMBL1201862, “PubChem BioAssay data set” (2004).

Calls of active or inactive are those of the source.

For assay [1], the target named is Epstein-Barr nuclear antigen 1 (Epstein-Barr virus (strain B95-8) (HHV-4) (Human herpesvirus 4), UniProt P03211). Nature of the assay: EBNA-1 inhibitors, dose response, biochemical, fluorescence polarization, 1536-well (AID 2381).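 Also: fluorescence polarization of a Cy5 DNA probe bound by EBNA-1 protein.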 Further details: species or system human gammaherpesvirus 4.
Epstein-Barr nuclear antigen 1, sequence (P03211 whole entry): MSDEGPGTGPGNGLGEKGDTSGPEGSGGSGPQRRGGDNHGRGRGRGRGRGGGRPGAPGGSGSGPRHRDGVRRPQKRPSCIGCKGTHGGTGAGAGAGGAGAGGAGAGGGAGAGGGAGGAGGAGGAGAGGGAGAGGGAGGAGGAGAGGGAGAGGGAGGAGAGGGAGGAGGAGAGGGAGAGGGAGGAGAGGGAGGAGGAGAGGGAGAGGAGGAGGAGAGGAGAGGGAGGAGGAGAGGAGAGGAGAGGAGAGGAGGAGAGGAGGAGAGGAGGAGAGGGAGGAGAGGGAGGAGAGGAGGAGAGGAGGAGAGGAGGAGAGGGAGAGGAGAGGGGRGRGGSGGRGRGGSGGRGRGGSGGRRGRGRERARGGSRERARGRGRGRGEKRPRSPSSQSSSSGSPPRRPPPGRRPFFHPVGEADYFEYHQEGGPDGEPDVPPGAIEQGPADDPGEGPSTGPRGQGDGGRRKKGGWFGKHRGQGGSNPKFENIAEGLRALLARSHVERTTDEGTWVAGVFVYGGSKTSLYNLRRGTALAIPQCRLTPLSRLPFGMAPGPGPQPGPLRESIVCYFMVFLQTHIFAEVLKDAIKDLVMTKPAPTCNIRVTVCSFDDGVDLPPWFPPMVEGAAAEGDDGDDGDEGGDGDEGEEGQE
In assay [2] the target is Lytic switch protein BZLF1 (Epstein-Barr virus (strain B95-8) (HHV-4) (Human herpesvirus 4), UniProt P03206). Nature of the assay: EBV ZTA inhibitors, dose response, counter-screen for EBNA-1 inhibitor project, biochemical, fluorescence polarization, Epstein-Barr virus, 1536-well (AID 2377).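 Also: fluorescence polarization of Cy5-labelled ZRE DNA probe bound by purified Zta.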 Further details: species or system human gammaherpesvirus 4.
Lytic switch protein BZLF1, sequence (P03206 whole entry): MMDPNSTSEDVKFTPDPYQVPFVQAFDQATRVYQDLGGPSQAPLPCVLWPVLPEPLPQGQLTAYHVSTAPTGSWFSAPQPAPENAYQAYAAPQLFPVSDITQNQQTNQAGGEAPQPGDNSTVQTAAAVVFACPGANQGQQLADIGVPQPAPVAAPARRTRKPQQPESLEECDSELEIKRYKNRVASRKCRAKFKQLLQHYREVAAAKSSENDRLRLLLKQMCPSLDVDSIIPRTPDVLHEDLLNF
A further assay concerns the target Cytochrome P450 2C9 (Homo sapiens, UniProt P11712).
The nature of assay [3]: cells.
Assay [4] has as its system Streptococcus sp. 'group A'. Kind of assay: growth inhibition of control SK(-) GAS strain, dose response, counter-screen for streptokinase expression inhibitor project, luminescence, kanamycin, BacTiterGlo, confirmation (AID 1900). It counts as functional, organism-based.
Assay [5] in a line: Counterscreen for IDE inhibitors: Luminescence-based cell-based high throughput dose response assay to identify compounds that are cytotoxic to HEK cells. [Related pubchem assays: 434962 (Primary screen (IDE inhibitors in singlicate)), 449730 (Counterscreen (Cytotoxicity in triplicate)), 435028 (Confirmation (IDE inhibitors in triplicate)) …. The following applies: HEK293. It counts as functional.

The target in the next assay is T1, Streptokinase A (Streptococcus pyogenes serotype M1, UniProt P10520).
T1 sequence (P10520 whole entry): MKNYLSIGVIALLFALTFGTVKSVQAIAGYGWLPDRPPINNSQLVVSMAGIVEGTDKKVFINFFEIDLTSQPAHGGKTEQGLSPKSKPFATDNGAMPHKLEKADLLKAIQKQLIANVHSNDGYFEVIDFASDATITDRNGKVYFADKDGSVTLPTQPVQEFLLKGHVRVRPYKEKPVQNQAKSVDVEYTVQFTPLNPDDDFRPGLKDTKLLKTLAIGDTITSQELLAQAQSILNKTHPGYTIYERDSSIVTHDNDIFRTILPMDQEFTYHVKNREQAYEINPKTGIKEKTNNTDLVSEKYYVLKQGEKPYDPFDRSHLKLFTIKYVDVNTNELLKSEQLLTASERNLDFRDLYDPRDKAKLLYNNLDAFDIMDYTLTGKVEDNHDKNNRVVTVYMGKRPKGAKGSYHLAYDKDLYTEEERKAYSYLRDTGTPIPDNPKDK
Kind of assay: S. pyogenes streptokinase expression inhibitors, potency, dose response, plasminogen activation absorbance, OD405 (AID 1914).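 Also: secreted streptokinase activity via plasminogen activation per viability signal from cell pellet.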 The class given is functional, Streptococcus pyogenes M1 GAS.

A further assay has as its target T2, Insulin-degrading enzyme (Homo sapiens, UniProt P14735).
T2 sequence (P14735 whole entry): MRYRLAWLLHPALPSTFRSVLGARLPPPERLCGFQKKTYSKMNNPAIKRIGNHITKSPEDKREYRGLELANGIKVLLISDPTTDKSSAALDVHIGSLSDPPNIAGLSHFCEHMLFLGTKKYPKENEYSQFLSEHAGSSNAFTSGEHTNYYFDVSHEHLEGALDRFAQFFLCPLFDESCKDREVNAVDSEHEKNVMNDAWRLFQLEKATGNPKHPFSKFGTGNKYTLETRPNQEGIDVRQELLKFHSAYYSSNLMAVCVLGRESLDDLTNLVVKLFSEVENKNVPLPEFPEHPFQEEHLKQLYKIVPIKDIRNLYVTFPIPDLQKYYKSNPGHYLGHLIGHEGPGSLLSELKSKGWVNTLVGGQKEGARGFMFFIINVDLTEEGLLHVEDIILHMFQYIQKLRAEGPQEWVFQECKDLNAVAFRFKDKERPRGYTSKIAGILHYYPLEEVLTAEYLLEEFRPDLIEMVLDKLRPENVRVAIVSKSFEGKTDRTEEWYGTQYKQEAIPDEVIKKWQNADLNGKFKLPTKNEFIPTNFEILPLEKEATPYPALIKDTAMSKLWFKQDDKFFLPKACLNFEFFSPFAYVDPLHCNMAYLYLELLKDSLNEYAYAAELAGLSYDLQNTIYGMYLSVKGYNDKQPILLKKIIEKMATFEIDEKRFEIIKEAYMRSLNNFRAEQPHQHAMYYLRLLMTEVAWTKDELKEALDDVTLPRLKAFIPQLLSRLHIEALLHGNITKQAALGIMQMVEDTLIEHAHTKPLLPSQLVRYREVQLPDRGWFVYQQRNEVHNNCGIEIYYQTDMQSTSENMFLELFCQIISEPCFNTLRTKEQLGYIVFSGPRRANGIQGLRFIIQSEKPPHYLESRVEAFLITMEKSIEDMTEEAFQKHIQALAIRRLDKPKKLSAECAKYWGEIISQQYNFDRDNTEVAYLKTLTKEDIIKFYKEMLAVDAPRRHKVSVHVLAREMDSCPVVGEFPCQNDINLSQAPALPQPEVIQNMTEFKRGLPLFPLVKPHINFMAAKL
Nature of the assay: Dose Response: Fluorescence polarization-based cell-based high throughput dose response assay for inhibitors of insulin-degrading enzyme (IDE). [Related pubchem assays: 434962 (Primary screen (IDE inhibitors in singlicate)), 449730 (Counterscreen (Cytotoxicity in triplicate)), 435028 (Confirmation (IDE inhibitors in triplicate)), 434984 (Summary …. The class given is functional.

The next assay relates to Streptococcus. Kind of assay: Group A Streptococcus viability loss, dose response, counter-screen for streptokinase expression inhibitor project, luminescence, BacTiterGlo (AID 1915).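 Also: potency for reduction of bacterial viability or growth.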 The class given is functional, organism-based.
The next assay addresses T3, Estrogen receptor (Homo sapiens, UniProt P03372).
T3 sequence (P03372 whole entry): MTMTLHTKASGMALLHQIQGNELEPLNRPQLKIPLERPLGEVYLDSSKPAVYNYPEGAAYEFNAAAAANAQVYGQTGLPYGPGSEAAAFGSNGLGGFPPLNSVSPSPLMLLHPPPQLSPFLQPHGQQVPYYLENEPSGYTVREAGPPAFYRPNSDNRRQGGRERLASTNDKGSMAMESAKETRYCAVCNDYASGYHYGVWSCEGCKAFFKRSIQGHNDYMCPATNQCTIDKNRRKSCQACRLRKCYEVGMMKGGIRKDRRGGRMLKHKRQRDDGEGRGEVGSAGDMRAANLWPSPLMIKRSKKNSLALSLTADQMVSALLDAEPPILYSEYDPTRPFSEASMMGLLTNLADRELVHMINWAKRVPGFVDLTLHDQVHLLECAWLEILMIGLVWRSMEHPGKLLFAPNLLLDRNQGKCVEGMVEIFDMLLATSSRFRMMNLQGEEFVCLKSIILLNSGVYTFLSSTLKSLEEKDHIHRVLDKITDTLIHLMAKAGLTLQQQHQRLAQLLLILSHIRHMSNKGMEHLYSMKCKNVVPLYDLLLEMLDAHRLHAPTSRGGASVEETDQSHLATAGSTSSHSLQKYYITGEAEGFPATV
Nature of the assay: potentiators of ERα–SRC-1 coactivator binding, dose response, biochemical, TR-FRET, ERα LBD (AID 737).

The next assay has as its target T4, Aspartyl aminopeptidase (Plasmodium falciparum 3D7, UniProt Q8I2J3).
T4 sequence (Q8I2J3 whole entry): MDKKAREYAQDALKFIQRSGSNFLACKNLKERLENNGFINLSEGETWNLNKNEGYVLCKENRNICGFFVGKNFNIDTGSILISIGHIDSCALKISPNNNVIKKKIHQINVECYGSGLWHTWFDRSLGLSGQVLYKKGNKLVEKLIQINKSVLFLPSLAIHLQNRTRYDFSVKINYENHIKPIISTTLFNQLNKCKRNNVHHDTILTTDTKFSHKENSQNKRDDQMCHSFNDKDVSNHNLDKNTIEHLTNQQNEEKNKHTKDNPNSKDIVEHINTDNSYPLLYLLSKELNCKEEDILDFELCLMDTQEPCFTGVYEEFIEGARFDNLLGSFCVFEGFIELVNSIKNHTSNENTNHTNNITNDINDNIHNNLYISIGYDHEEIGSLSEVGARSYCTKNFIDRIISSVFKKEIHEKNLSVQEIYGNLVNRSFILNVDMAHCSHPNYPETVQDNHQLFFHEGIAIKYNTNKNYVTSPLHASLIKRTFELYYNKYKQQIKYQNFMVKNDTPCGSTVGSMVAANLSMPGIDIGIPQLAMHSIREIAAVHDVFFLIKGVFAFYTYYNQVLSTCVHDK

The target in a further assay is Procathepsin L (Homo sapiens, UniProt P07711).
Procathepsin L, sequence (P07711 whole entry): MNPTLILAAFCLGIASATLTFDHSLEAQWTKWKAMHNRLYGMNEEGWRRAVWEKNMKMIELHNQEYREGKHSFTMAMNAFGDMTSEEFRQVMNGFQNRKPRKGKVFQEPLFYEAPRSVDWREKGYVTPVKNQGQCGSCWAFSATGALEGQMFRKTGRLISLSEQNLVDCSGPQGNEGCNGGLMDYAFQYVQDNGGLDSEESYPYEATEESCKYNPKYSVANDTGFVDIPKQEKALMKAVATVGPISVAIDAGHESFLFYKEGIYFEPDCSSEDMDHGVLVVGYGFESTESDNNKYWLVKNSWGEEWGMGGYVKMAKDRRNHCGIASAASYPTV
The nature of assay [6]: A Cell Based Secondary Assay To Explore Cytotoxicity of Compounds that Sensitize Mycobacterium Tuberculosis to Beta-Lactam Antibiotics. The class given is functional.
A short description of assay [7]: HEp-2 cell cytotoxicity, dose response, cytotoxicity control for RSV inhibitor project, HTS (AID 2410). The following applies: human respiratory syncytial virus. It counts as functional.
A short description of assay [8]: cells. The class given is functional.
Assay [9] can be described thus: half-maximal inhibitory concentration for glucagon-like peptide-1 release, STC-1 cell line, dose-response (AID 1117345). It counts as functional, cell-based.
Assay [10] in a line: Glucagon-like peptide 1 release potency, NCI-H716 cell line, dose-response, half-maximal inhibitory concentration (AID 1117344). The class given is functional, cell-based.

Cytochrome P450 2C9, sequence (P11712 whole entry): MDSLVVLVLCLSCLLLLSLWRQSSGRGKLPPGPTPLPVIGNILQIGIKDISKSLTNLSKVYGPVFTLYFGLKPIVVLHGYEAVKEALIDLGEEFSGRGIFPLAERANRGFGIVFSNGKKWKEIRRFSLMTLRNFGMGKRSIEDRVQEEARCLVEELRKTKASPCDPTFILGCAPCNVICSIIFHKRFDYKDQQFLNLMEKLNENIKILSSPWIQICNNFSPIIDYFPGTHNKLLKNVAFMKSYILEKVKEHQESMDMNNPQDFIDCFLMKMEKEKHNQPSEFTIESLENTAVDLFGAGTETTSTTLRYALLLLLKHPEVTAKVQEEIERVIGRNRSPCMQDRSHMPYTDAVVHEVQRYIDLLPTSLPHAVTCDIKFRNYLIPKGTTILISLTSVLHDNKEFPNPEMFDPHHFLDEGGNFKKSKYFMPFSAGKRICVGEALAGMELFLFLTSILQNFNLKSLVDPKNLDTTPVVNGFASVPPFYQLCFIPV

Regarding `Cn1cc(/C=C2/SC(=O)N(CC(=O)Nc3ccc4c(c3)OCO4)C2=O)c2ccccc21`, the IC50 in assay [1] is 5.72 µM (active); in assay [2], > 111 µM (not active). In addition, the AC50 on Cytochrome P450 2C9 was 7.08 µM (inconclusive).

For `COc1ccc(C(C(=O)NC2CCCC2)N(C(=O)c2snc(C(N)=O)c2N)c2cc(C)ccc2OC)cc1OC` (configuration not stated), in “cells [3]”, the IC50 is 6.11 µM (active).

As to `Cc1ccc(/C=C/C(=O)NC(=S)Nc2ccc(S(=O)(=O)Nc3cc(C)on3)cc2)cc1`, the figures for the EC50 (in [4]; at Streptokinase A; in the assay on Streptococcus) were 9.56 µM (active), 27.1 µM (inconclusive) and 62.4 µM (active), respectively. Also, the IC50 in assay [5] was > 55.7 µM (not active); on Insulin-degrading enzyme it was 9.71 µM (active).

On to `CCOc1ccccc1N1C(=O)NC(=O)C(CCc2ccncc2)(CCc2ccncc2)C1=O`, for which the EC50 on Estrogen receptor is 12.7 µM (active).

For the compound `COc1ccc(NC(=O)NNC(=O)CCc2ccc(O)c(O)c2)cc1OC`, the IC50 on Aspartyl aminopeptidase was 2.51 µM (active); at Procathepsin L, > 59.6 µM (not active).

With `Cc1cccc(N2CCN(C(=O)c3cccc(N4C(=O)C5C6C=CC(C6)C5C4=O)c3)CC2)c1C` (configuration not stated), the results for the IC50 (in assay [5]; on Insulin-degrading enzyme) were 17.4 µM (not active) and 6.73 µM (active), respectively.

As for `Cc1ccc(C(=O)c2oc3ccccc3c2NC(=O)c2cc(-c3cc(C)ccc3O)[nH]n2)cc1`, the CC50 in assay [6] was 7.97 µM (active).

With `COc1ccc(NC(=O)CSc2nc(N)c(C(=O)Nc3ccc(N(C)C)cc3)s2)cc1`, the CC50 in assay [6] was > 40 µM (active).

Consider `CCCCC1CCC(C(=O)Nc2ccc(S(=O)(=O)Nc3nccs3)cc2)CC1` (configuration not stated), for which, in assay [7], the CC50 was 34.3 µM (active). The values for the IC50 in the assay “cells [8]” and in “cells [3]” were 14.5 µM (active) and 36.5 µM (active), respectively.

Consider `C/C=C(/C(=C/C)c1ccc(O)cc1)c1ccc(O)cc1` [DIENESTROL], for which the EC50 on Estrogen receptor is 13.2 µM (active). Moreover, the IC50 in assay [9] and in assay [10] was > 40 µM (inactive) throughout.
